{
  "source": "patent US20080261263A1",
  "about": "“In Vitro Evaluation of Micro-Organisms and Their Antimicrobial Agent Susceptibilities” (SYFT Technologies Limited, priority 2005, published 2008)",
  "key": {"[1]": {"tested_on": "E. coli", "assay": "Predetermined minimal inhibitory concentration (MIC) for E. coli", "type": "cell-based, Escherichia coli"}, "[2]": {"tested_on": "E. coli", "assay": "Effect of antibiotic on E. coli blood culture headspace VC production (SIFT-MS SIMscan)", "type": "cell-based, Escherichia coli", "description": "(§1) In one form of the method headspace atmospheres are introduced above conventional Biomerieux BacT/ALERT® aerobic or anaerobic blood cultures at a controlled rate into the flow tube precursor ion stream. The count rates of the resulting product ions are then to be determined by a “downstream” quadrupole and particle multiplier detector. Operating in full scan mode, the detector quadrupole is scanned over a predetermined m/z range to obtain a spectrum of product ions. In selected ion mode (SIMscan) the count rate of selected product ions is determined as the downstream […] is switched to and remains on selected m/zs.\n(§2) Standard Biomerieux (Durham, N.C., USA) BacT/ALERT® SA, FA and SN disposable, plastic culture bottles containing 40 ml of culture medium were used throughout the experiments. 9 ml of healthy, uninfected human blood and 1 ml aliquots of antibiotics prepared in sterile water were added (in the relevant experiments) as required to each bottle prior to the addition of 1 ml of bacterial species suspended in sterile physiological saline.\n(§3) SIFT-MS mass scan studies comparing 24 hour BacT/ALERT®SA blood culture headspace VCs with medium+blood controls identified a test panel of SIM VC analytes suitable for the five bacterial species tested. These bacterial metabolites included acetaldehyde, acetic acid, acetone, 2-aminoacetophenone, ammonia, dimethyldisulfide (DMDS), dimethylsulfide (DMS), formaldehyde, ethanol, hydrogen sulfide, indole, methanethiol, pentanols and propanol. […] absolute concentration measurements in parts per billion (ppb v/v) were integrated, averaged and recorded separately for acetaldehyde, acetic acid, ethanol, acetone, ammonia, hydrogen sulfide, DMS and DMDS during each 30 second SIMscan for each triplicate culture of the five test species after incubation in BacT/ALERT aerobic media. The results are recorded in Table 1 (below).\n(§4) Approximately 10^3 CFU E. coli or S. aureus were inoculated into Biomerieux BacT/ALERT® SA bottles including 9 ml of fresh uninfected blood. Each bacterial species was incubated in triplicate either alone or in the presence of antibiotics above or below their predetermined minimal inhibitory concentrations (MIC).\n(§5) Gentamicin was added to E. coli cultures at either 2 μg/ml or 0.05 μg/ml (MIC 0.25-1 μg/m)l. Flucloxacillin was added to S. aureus cultures at 2 μg/ml or 0.05 μg/ml (MIC 0.12-0.5 μg/ml).\n(§6) The mean, minima and maxima integrated headspace analyte concentration measurements obtained from E. coli and S. aureus cultures are compared in Tables 8 and 9."}, "[3]": {"tested_on": "S. aureus", "assay": "Effect of antibiotic on S. aureus blood culture headspace VC production (SIFT-MS SIMscan)", "type": "cell-based, Staphylococcus aureus", "conditions": "for Ammonia mean concentration / DMS mean concentration: S. aureus 6 h; for Aminoacetophenone mean concentration / Ethanol mean concentration / Formaldehyde mean concentration: S. aureus 22 h; for Inhibition of aminoacetophenone, ethanol and formaldehyde: S. aureus 22 hours; for Effect on production of ammonia and dimethylsulfide by S. aureus: six hours, flucloxacillin above and below its MIC", "description": "as §1, §2, §3, §4, §5, §6"}, "[4]": {"tested_on": "S. aureus", "assay": "Predetermined minimal inhibitory concentration (MIC) for S. aureus", "type": "cell-based", "conditions": "Staphylococcus aureus"}, "[5]": {"conditions": "E. coli 6 h, gentamicin <MIC (0.05 μg/ml)"}, "[6]": {"conditions": "E. coli 6 h, gentamicin >MIC (2 μg/ml)"}, "[7]": {"conditions": "E. coli 22 h, gentamicin <MIC (0.05 μg/ml)"}, "[8]": {"conditions": "E. coli 22 h, gentamicin >MIC (2 μg/ml)"}, "[9]": {"conditions": "flucloxacillin <MIC (0.05 μg/ml)"}},
  "data": [
    {"compound": "Gentamicin", "values": [
      {"measurement": "MIC", "setting": "[1]", "result": "0.25 to 1", "unit": "µg/mL"},
      {"measurement": "Hydrogen sulfide mean concentration", "setting": "[2]; [5]", "result": 0, "unit": "ppb"},
      {"measurement": "Pentanols mean concentration", "setting": "[2]; [5]", "result": 120, "unit": "ppb"},
      {"measurement": "Hydrogen sulfide mean concentration", "setting": "[2]; [6]", "result": 0, "unit": "ppb"},
      {"measurement": "Pentanols mean concentration", "setting": "[2]; [6]", "result": 90, "unit": "ppb"},
      {"measurement": "Acetaldehyde mean concentration", "setting": "[2]; [7]", "result": 3300, "unit": "ppb"},
      {"measurement": "Acetic acid mean concentration", "setting": "[2]; [7]", "result": 1950, "unit": "ppb"},
      {"measurement": "Aminoacetophenone mean concentration", "setting": "[2]; [7]", "result": 900, "unit": "ppb"},
      {"measurement": "DMDS mean concentration", "setting": "[2]; [7]", "result": 380, "unit": "ppb"},
      {"measurement": "DMS mean concentration", "setting": "[2]; [7]", "result": 30, "unit": "ppb"},
      {"measurement": "Ethanol mean concentration", "setting": "[2]; [7]", "result": 42000, "unit": "ppb"},
      {"measurement": "Formaldehyde mean concentration", "setting": "[2]; [7]", "result": 140, "unit": "ppb"},
      {"measurement": "Hydrogen sulfide mean concentration", "setting": "[2]; [7]", "result": 1030, "unit": "ppb"},
      {"measurement": "Indole mean concentration", "setting": "[2]; [7]", "result": 210, "unit": "ppb"},
      {"measurement": "Methanethiol mean concentration", "setting": "[2]; [7]", "result": 1400, "unit": "ppb"},
      {"measurement": "Pentanols mean concentration", "setting": "[2]; [7]", "result": 220, "unit": "ppb"},
      {"measurement": "Propanol mean concentration", "setting": "[2]; [7]", "result": 5800, "unit": "ppb"},
      {"measurement": "Acetaldehyde mean concentration", "setting": "[2]; [8]", "result": 2700, "unit": "ppb"},
      {"measurement": "Acetic acid mean concentration", "setting": "[2]; [8]", "result": 600, "unit": "ppb"},
      {"measurement": "Aminoacetophenone mean concentration", "setting": "[2]; [8]", "result": 280, "unit": "ppb"},
      {"measurement": "DMDS mean concentration", "setting": "[2]; [8]", "result": 190, "unit": "ppb"},
      {"measurement": "DMS mean concentration", "setting": "[2]; [8]", "result": 30, "unit": "ppb"},
      {"measurement": "Ethanol mean concentration", "setting": "[2]; [8]", "result": 16000, "unit": "ppb"},
      {"measurement": "Formaldehyde mean concentration", "setting": "[2]; [8]", "result": 110, "unit": "ppb"},
      {"measurement": "Hydrogen sulfide mean concentration", "setting": "[2]; [8]", "result": 6, "unit": "ppb"},
      {"measurement": "Indole mean concentration", "setting": "[2]; [8]", "result": 110, "unit": "ppb"},
      {"measurement": "Methanethiol mean concentration", "setting": "[2]; [8]", "result": 150, "unit": "ppb"},
      {"measurement": "Pentanols mean concentration", "setting": "[2]; [8]", "result": 90, "unit": "ppb"},
      {"measurement": "Propanol mean concentration", "setting": "[2]; [8]", "result": 1700, "unit": "ppb"},
      {"measurement": "Effect on production of all headspace VCs (except formaldehyde)", "setting": "[2]; E. coli 22 hours, gentamicin above its MIC, p<0.005", "result": "significantly inhibited"},
      {"measurement": "Effect on most analytes (except hydrogen sulfide and methanethiol)", "setting": "[2]; E. coli 22 hours, gentamicin below its MIC, p<0.01", "result": "Significant (p<0.01) reductions"},
      {"measurement": "Effect on production of hydrogen sulfide by E. coli", "setting": "[2]; six hours, both gentamicin concentrations", "result": "eliminated"}
    ]},
    {"compound": "Cc1onc(-c2c(F)cccc2Cl)c1C(=O)N[C@@H]1C(=O)N2[C@@H]1SC(C)(C)[C@@H]2C(=O)O", "note": "[Flucloxacillin]", "values": [
      {"measurement": "Ammonia mean concentration", "setting": "[3]; [9]", "result": 40, "unit": "ppb"},
      {"measurement": "DMS mean concentration", "setting": "[3]; [9]", "result": 30, "unit": "ppb"},
      {"measurement": "Ammonia mean concentration", "setting": "[3]; flucloxacillin >MIC (2 μg/ml)", "result": 50, "unit": "ppb"},
      {"measurement": "DMS mean concentration", "setting": "[3]; flucloxacillin >MIC (2 μg/ml)", "result": 10, "unit": "ppb"},
      {"measurement": "Aminoacetophenone mean concentration", "setting": "[3]; [9]", "result": 200, "unit": "ppb"},
      {"measurement": "Ethanol mean concentration", "setting": "[3]; [9]", "result": 7500, "unit": "ppb"},
      {"measurement": "Formaldehyde mean concentration", "setting": "[3]; [9]", "result": 60, "unit": "ppb"},
      {"measurement": "Aminoacetophenone mean concentration", "setting": "[3]; flucloxacillin >MIC (2 μg/ml)", "result": 60, "unit": "ppb"},
      {"measurement": "Ethanol mean concentration", "setting": "[3]; flucloxacillin >MIC (2 μg/ml)", "result": 1900, "unit": "ppb"},
      {"measurement": "Formaldehyde mean concentration", "setting": "[3]; flucloxacillin >MIC (2 μg/ml)", "result": 20, "unit": "ppb"},
      {"measurement": "Inhibition of aminoacetophenone, ethanol and formaldehyde", "setting": "[3]; flucloxacillin above its MIC, p<0.01", "result": "notable"},
      {"measurement": "Inhibition of aminoacetophenone, ethanol and formaldehyde", "setting": "[3]; lower flucloxacillin concentration (below MIC)", "result": "not inhibitory"},
      {"measurement": "Effect on production of ammonia and dimethylsulfide by S. aureus", "setting": "[3]", "result": "significantly reduced"},
      {"measurement": "Effect on production of ammonia and dimethylsulfide by S. aureus", "setting": "[3]; listed as flucloxacillin", "result": "inhibited to uninoculated, antibiotic-containing control levels"},
      {"measurement": "MIC", "setting": "[4]", "result": "0.12 to 0.5", "unit": "µg/mL"}
    ]}
  ]
}
